The results in this text go back to ChEMBL document CHEMBL1201862, “PubChem BioAssay data set” (2004).

Test systems include DLD-1; DMS-273; HOP-18; LXFL 529; M19-MEL; SNB-78; DMS-114; KM-20L2; XF498.
Holding throughout (experiment): inhibition of tumour cell growth, NCI panel, 48 h

Molecules are shown by their SMILES.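 Cells were grown in 96-well plates and exposed to each compound for 48 hours at five concentrations; endpoints were interpolated linearly between bracketing concentrations, or set to the highest concentration if not reached. GI50 marks 50% less growth.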 The source made the active and inactive calls. No stated cut-off is given here; in the data, active = GI50 up to about 1.1 µM and inactive = higher.

Regarding `S=C(Nc1ccccc1)Nc1[nH]c(=S)sc1-c1nc2ccccc2[nH]1`, the GI50 was 76.9 µM (inactive) in the test on DLD-1; 37.8 µM (inactive) with DMS-273; > 100 µM (inactive) in the test on HOP-18; 29.6 µM (inactive) in the test on LXFL 529; > 100 µM (inactive) with M19-MEL; 36.1 µM (inactive) in the test with SNB-78.

`C=C1C2CC(OC(C)=O)C3(C)C(c4ccoc4)OC(=O)[C@@H](O)[C@]13OC1C[C@H](OC(C)=O)C(C)(C)[C@H](C(O)C(=O)OC)[C@]12C` (stereo not given in full): the GI50 in the test on DLD-1, with DMS-114, with DMS-273, with HOP-18, with KM-20L2 and in the test on LXFL 529 was > 100 µM (inactive) throughout. Besides, the GI50 in the test with M19-MEL and with SNB-78 was > 100 µM (inactive) in each case.

As to `O=C(Cc1nc2c3c(ccc2nc1O)C(=O)c1ccccc1C3=O)C(=O)Nc1ccccc1[N+](=O)[O-]`, the GI50 is 19.6 µM (inactive) with KM-20L2; 4.24 µM (inactive) in the test with LXFL 529; 22.2 µM (inactive) with M19-MEL; 4.22 µM (inactive) in the test with SNB-78; 12.6 µM (inactive) with XF498.

Consider `COc1cc2c(cc1OC(=O)CC(C)O)C1C(OC2=O)C(OC(C)=O)C=C2CCN(C)[C@H]21` (stereo not given in full), for which the GI50 in the test on DLD-1 is 69 µM (inactive); in the test on DMS-273, 47.1 µM (inactive); in the test on HOP-18, 26.9 µM (inactive); with KM-20L2, > 100 µM (inactive); with LXFL 529 it was 82.4 µM (inactive); in the test with M19-MEL, 78.9 µM (inactive). The GI50 is 20.7 µM (inactive) in the test on SNB-78 and 20.1 µM (inactive) in the test on XF498.

For `C[N+](C)(C)CC(CC(=O)[O-])C1CC1` (stereo not given), the GI50 in the test on DMS-114, in the test on DMS-273, in the test on HOP-18, in the test on KM-20L2, in the test on LXFL 529 and in the test on M19-MEL was > 100 µM (inactive) each time. In addition, in the test on XF498, the GI50 was > 100 µM (inactive).

On to `Clc1cccc2c1OCC1C(c3ccccc3)=NN(c3ccccc3)C21` (stereo not given), for which the GI50 is > 100 µM (inactive) with DLD-1; 47.6 µM (inactive) in the test on DMS-114; 45.8 µM (inactive) with DMS-273; 24 µM (inactive) in the test with HOP-18; > 100 µM (inactive) in the test with KM-20L2; 67.1 µM (inactive) in the test with LXFL 529. The GI50 was > 100 µM (inactive) in the test with M19-MEL, 72.9 µM (inactive) in the test on SNB-78 and > 100 µM (inactive) with XF498.

As to `COc1cc(/C=C\c2ccc(Cl)cc2)cc(OC)c1OC`, the GI50 in the test on DLD-1 is 0.319 µM (active); in the test on DMS-114, 0.394 µM (active); with DMS-273, 0.149 µM (active); in the test with HOP-18, > 100 µM (inactive); in the test on KM-20L2, 0.105 µM (active); in the test with LXFL 529, 0.292 µM (active). In addition, the figures for the GI50 with M19-MEL, in the test on SNB-78 and with XF498 were 0.389 µM (active), 0.162 µM (active) and 0.274 µM (active), respectively.

For `C/C(=C1/N=C(c2cc([N+](=O)[O-])ccc2Cl)N(c2ccc(Br)cc2)C1=O)c1ccc(N(CCC#N)CCC#N)cc1C`, the GI50 in the test with DLD-1 was 15.9 µM (inactive); in the test on DMS-114, 12.3 µM (inactive); in the test with DMS-273, 7.23 µM (inactive); in the test on HOP-18, 76.9 µM (inactive); in the test on KM-20L2, 16.1 µM (inactive); with LXFL 529, 8.11 µM (inactive). Also, the GI50 in the test with M19-MEL was 29.1 µM (inactive); in the test with SNB-78, 40.6 µM (inactive); in the test on XF498, 4.71 µM (inactive).

Take `COc1ccc(-c2cc(O)c3ccc(F)cc3n2)cc1`: the GI50 in the test on DLD-1, with DMS-114, in the test with HOP-18, with KM-20L2, in the test on LXFL 529 and in the test with M19-MEL was > 100 µM (inactive) in each case. The GI50 in the test on SNB-78 and in the test on XF498 was > 100 µM (inactive) each time.

On to `Cc1cc(NCCCCCCCCNc2cc(C)nc3cc(N(C)C)ccc23)c2ccc(N(C)C)cc2n1`, for which the GI50 with DMS-114 is 1.39 µM (inactive); in the test with DMS-273 it was 2.74 µM (inactive); in the test with KM-20L2 it was 4.29 µM (inactive); with LXFL 529 it was 1.69 µM (inactive); with M19-MEL it was 2.78 µM (inactive); in the test on SNB-78, 5.47 µM (inactive). Besides, the GI50 with XF498 was 1.98 µM (inactive).

`NC(=S)N1N=C2c3ccccc3CCC[C@H]2[C@@H]1c1ccccc1`: the GI50 with DLD-1 is 3.42 µM (inactive); in the test on DMS-114, 3.98 µM (inactive); in the test with DMS-273 it was 0.721 µM (active); with KM-20L2, 2.01 µM (inactive); with LXFL 529, 3.89 µM (inactive); in the test on M19-MEL, 2.81 µM (inactive). Also, the GI50 in the test on SNB-78 is 5.77 µM (inactive); in the test with XF498, 4.55 µM (inactive).

Regarding `C/C(CC(=O)Nc1cc(C)ccc1C)=N\NC(=O)c1ccncc1`, the GI50 with DLD-1, in the test with KM-20L2, in the test on LXFL 529, with M19-MEL and in the test with SNB-78 was > 100 µM (inactive) each time.

With `CCCCCCCCCCCCCCCCCCCCCC(=O)Nc1ccn(C2OC(CO)C(O)C2O)c(=O)n1` (stereo not given), the GI50 in the test with DLD-1 was > 100 µM (inactive); in the test with DMS-114, 1.04 µM (active); in the test on DMS-273, 35.6 µM (inactive); in the test on HOP-18, > 100 µM (inactive); with KM-20L2, > 100 µM (inactive); with LXFL 529 it was > 100 µM (inactive). The GI50 with M19-MEL was 8.17 µM (inactive); in the test on SNB-78, > 100 µM (inactive); in the test with XF498 it was > 100 µM (inactive).

As for `COc1cc(C(O)C(=O)c2cnc3cc([N+](=O)[O-])ccc3n2)ccc1O` (stereo not given), the GI50 is > 100 µM (inactive) in the test on DLD-1; 49.9 µM (inactive) with DMS-114; > 100 µM (inactive) in the test on DMS-273; 85.5 µM (inactive) with KM-20L2; 74.1 µM (inactive) in the test with LXFL 529; > 100 µM (inactive) in the test on M19-MEL. Also, the GI50 with XF498 was > 100 µM (inactive).

On to `Cc1ccc(NC(=O)C(=O)CC(=O)C2CCOC2=O)c(C)c1` (stereo not given), for which the GI50 in the test on DLD-1, in the test with DMS-114, with DMS-273, in the test with HOP-18, in the test with KM-20L2 and in the test with LXFL 529 was > 100 µM (inactive) each time. Moreover, the GI50 in the test on SNB-78 and with XF498 was > 100 µM (inactive) throughout.

In the case of `O=c1oc2c(O)c(O)cc3c(=O)oc4c(O)c(O)cc1c4c23` [ELLAGIC ACID], the GI50 in the test on DLD-1 was > 10 µM (inactive); in the test with DMS-114 it was 33.4 µM (inactive); with DMS-273, > 10 µM (inactive); in the test on HOP-18, > 10 µM (inactive); in the test with KM-20L2, 94.4 µM (inactive); with LXFL 529, 37 µM (inactive). In addition, the GI50 with M19-MEL was > 10 µM (inactive); in the test on SNB-78, > 10 µM (inactive); in the test with XF498, 35.2 µM (inactive).

For the molecule `COC1=C(C)C(=O)C2C(C1=O)C(c1ccc(OC)c(OC)c1)[C@H]2C` (stereo not given in full), the GI50 in the test on DLD-1, in the test on DMS-273, in the test with LXFL 529, with M19-MEL, in the test with SNB-78 and with XF498 was > 100 µM (inactive) throughout.

On to `O=C(c1ccncc1)n1nc(-c2ccccc2)c(/N=N/c2ccccc2[N+](=O)[O-])c1-c1ccccc1`, for which the GI50 in the test on DLD-1 is 49.9 µM (inactive); in the test with DMS-114, 21 µM (inactive); in the test on DMS-273, > 100 µM (inactive); with LXFL 529, 74.6 µM (inactive); with M19-MEL, > 100 µM (inactive); in the test with SNB-78, 65.3 µM (inactive). Also, in the test on XF498, the GI50 is 33.5 µM (inactive).
